This is an account of results in publication PMC6389962 (Nature Communications, 2019).

Molecules are shown by their SMILES. A value given as a limit tells only on which side of the number the result lay.

The target of experiment [1] is T1, mouse GLP-1 receptor (Mus musculus, UniProt O35659).
T1 sequence (O35659 22-463): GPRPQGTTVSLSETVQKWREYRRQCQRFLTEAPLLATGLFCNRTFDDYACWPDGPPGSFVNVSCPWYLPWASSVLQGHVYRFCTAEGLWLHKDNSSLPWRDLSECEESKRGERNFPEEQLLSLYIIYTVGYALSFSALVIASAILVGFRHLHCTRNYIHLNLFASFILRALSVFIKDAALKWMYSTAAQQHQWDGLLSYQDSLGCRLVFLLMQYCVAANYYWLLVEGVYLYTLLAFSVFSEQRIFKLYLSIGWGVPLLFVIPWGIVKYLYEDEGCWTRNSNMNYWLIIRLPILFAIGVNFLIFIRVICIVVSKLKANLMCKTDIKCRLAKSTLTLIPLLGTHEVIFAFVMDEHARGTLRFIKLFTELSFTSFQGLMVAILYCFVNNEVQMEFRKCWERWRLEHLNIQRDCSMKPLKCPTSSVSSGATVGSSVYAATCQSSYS
The settings on record: for Potency (%), percentage of potency compare to GLP-1-G^2: cAMP production, from EC50. (cAMP levels reflect the balance of adenylyl cyclase and phosphodiesterase activity.)

The target in experiment [2] is T1, mouse GLP-1 receptor. In words: cell-based. The settings on record: for Emax: read-out: Top (best-fit value), variable slope four-parameter fit, unconstrained, 14: experiment 1.

Regarding `CC[C@H](C)[C@H](NC(=O)[C@H](Cc1ccccc1)NC(=O)[C@H](CCC(=O)O)NC(=O)NC[C@H](C)NC(=O)NC[C@H](C)NC(=O)NC[C@H](C)NC(=O)CNC(=O)[C@H](CCC(=O)O)NC(=O)[C@H](CC(C)C)NC(=O)[C@H](Cc1ccc(O)cc1)NC(=O)[C@H](CO)NC(=O)[C@H](CO)NC(=O)[C@@H](NC(=O)[C@H](CC(=O)O)NC(=O)[C@H](CO)NC(=O)[C@@H](NC(=O)[C@H](Cc1ccccc1)NC(=O)[C@@H](NC(=O)CNC(=O)[C@H](CCC(=O)O)NC(=O)CNC(=O)[C@@H](N)Cc1c[nH]cn1)[C@@H](C)O)[C@@H](C)O)C(C)C)C(=O)N[C@@H](C)C(=O)N[C@@H](Cc1c[nH]c2ccccc12)C(=O)N[C@@H](CC(C)C)C(=O)N[C@H](C(=O)N[C@@H](CCCCN)C(=O)NCC(=O)N[C@@H](CCCNC(=N)N)C(=O)NCC(N)=O)C(C)C` [compound 13, GG2[A^uA^uA^u]^17-20], on mouse GLP-1 receptor [1], the “LogEC50 (best-fit value)” value is on record as -5.795. On mouse GLP-1 receptor [2], the midpoint of the response, the EC50, lay at 1.6 µM and the Emax turned out to be 57.7%.

Take `CC(C)C[C@H](NC(=O)[C@H](Cc1ccc(O)cc1)NC(=O)[C@H](CO)NC(=O)[C@H](CO)NC(=O)[C@@H](NC(=O)[C@H](CC(=O)O)NC(=O)[C@H](CO)NC(=O)[C@@H](NC(=O)[C@H](Cc1ccccc1)NC(=O)[C@@H](NC(=O)CNC(=O)[C@H](CCC(=O)O)NC(=O)CNC(=O)[C@@H](N)Cc1c[nH]cn1)[C@@H](C)O)[C@@H](C)O)C(C)C)C(=O)N[C@@H](CCC(=O)O)C(=O)NCC(=O)N[C@@H](CCC(N)=O)C(=O)N[C@@H](C)C(=O)N[C@@H](C)C(=O)N[C@@H](CCCCN)C(=O)N[C@@H](CCC(=O)O)C(=O)N[C@@H](Cc1ccccc1)C(=O)N[C@@H](C)CNC(=O)N[C@@H](C)CNC(=O)N[C@@H](C)CNC(=O)N[C@H](C(=O)N[C@@H](CCCCN)C(=O)NCC(=O)N[C@@H](CCCNC(=N)N)C(=O)NCC(N)=O)C(C)C` [compound 17, GG2[A^uA^uA^u]^23-26]: on mouse GLP-1 receptor [1], the “LogEC50 (best-fit value)” value is listed as -5.406 and the “Potency (%), percentage of potency compare to GLP-1-G^2” value is recorded as 0.01%. Besides, at mouse GLP-1 receptor [2], the EC50 (commonly the concentration needed to bring the measured effect to its halfway point) stood at 3.93 µM and the Emax came to 98.7%.

For `CC[C@H](C)[C@H](NC(=O)[C@H](Cc1ccccc1)NC(=O)[C@H](CCC(=O)O)NC(=O)[C@H](CCCCN)NC(=O)[C@H](C)NC(=O)[C@H](C)NC(=O)[C@H](CCC(N)=O)NC(=O)CNC(=O)[C@H](CCC(=O)O)NC(=O)[C@H](CC(C)C)NC(=O)[C@H](Cc1ccc(O)cc1)NC(=O)[C@H](CO)NC(=O)[C@H](CO)NC(=O)[C@@H](NC(=O)[C@H](CC(=O)O)NC(=O)[C@H](CO)NC(=O)[C@@H](NC(=O)[C@H](Cc1ccccc1)NC(=O)[C@@H](NC(=O)CNC(=O)[C@H](CCC(=O)O)NC(=O)CNC(=O)[C@@H](N)Cc1c[nH]cn1)[C@@H](C)O)[C@@H](C)O)C(C)C)C(=O)N[C@@H](C)CNC(=O)N[C@@H](C)CNC(=O)N[C@@H](C)CNC(=O)N[C@@H](CCCCN)C(=O)NCC(=O)N[C@@H](CCCNC(=N)N)C(=O)NCC(N)=O` [compound 18, GG2[A^uA^uA^u]^24-27], the “Potency (%), percentage of potency compare to GLP-1-G^2” value on mouse GLP-1 receptor [1] was below 0.01%. Moreover, on mouse GLP-1 receptor [2], the EC50 was above 10 µM and the Emax was determined as 198%.
